The text below walks through data of ChEMBL document CHEMBL1138817, “Synthesis and cytotoxic activity of 3-O-acyl/3-hydrazine /2-bromo/20,29-dibromo betulinic acid derivatives” (2004).

Each structure is given as a SMILES string. ≈ marks a conversion by molar mass, not a printed value. A value given as a limit tells only on which side of the number the result lay.

Holding throughout (type): functional
The test system of one assay is CCRF-CEM. The experiment in a line: Cytotoxic activity against human CEM.CM3 cell line was measured after 72 hr using MTT assay. As to conditions: Homo sapiens, CCRF-CEM, 72 h; read-out: ED50 (the source's name). (In general: Tetrazolium dyes change colour on reduction, which living cells bring about.)
The subject of a further assay is PA-1. The experiment in a line: Cytotoxic activity against human PA-1 cell line was measured after 72 hr using MTT assay. As to conditions: Homo sapiens, PA-1, 72 h; read-out: ED50 (the source's name).
For the next assay, the system named is MOLT-4. The experiment in a line: Cytotoxic activity against human MOLT-4 cell line was measured after 72 hr using MTT assay. Conditions: Homo sapiens, MOLT-4, 72 h; read-out: ED50 (the source's name).
Another assay deals with BRISTOL8. The experiment in a line: Cytotoxic activity against human BRISTOL8 cell line was measured after 72 hr using MTT assay. As to conditions: Homo sapiens, BRISTOL8, 72 h; read-out: ED50 (the source's name).
A further assay concerns L132. The experiment in a line: Cytotoxic activity against human L132 cell line was measured after 72 hr using MTT assay. As to conditions: L132, 72 h, read-out: ED50 (the source's name).
Another assay relates to DU-145. The experiment in a line: Cytotoxic activity against human DU145 cell line was measured after 72 hr using MTT assay. Conditions: for EC50: Homo sapiens, DU-145, 72 h, read-out: ED50 (the source's name).
Another assay relates to Jurkat. The experiment in a line: Cytotoxic activity against human JurkatE6.1 cell line was measured after 72 h using MTT assay. Conditions: for EC50: Homo sapiens, Jurkat, 72 h, read-out: ED50 (the source's name).
The test system of the next assay is A549. The experiment in a line: Cytotoxic activity against human A549 cell line was measured after 72 hr using MTT assay. As to conditions: A549, 72 h, read-out: ED50 (the source's name).
The subject of another assay is U-937. The experiment in a line: Cytotoxic activity against human U937 cell line was measured after 72 hr using MTT assay. As to conditions: Homo sapiens, U-937, 72 h; read-out: ED50 (the source's name).

For `COC(=O)CCOC(=O)[C@]12CC[C@@H](C(C)C)C1C1CCC3[C@@]4(C)CC(Br)C(=O)C(C)(C)C4CC[C@@]3(C)[C@]1(C)CC2` (stereo partly drawn), the EC50 in the assay with CCRF-CEM is 1.9 µg/mL (≈ 3.06 µM); with PA-1, 4.8 µg/mL (≈ 7.72 µM); in the assay on MOLT-4, 1.2 µg/mL (≈ 1.93 µM); with BRISTOL8 it was 2.3 µg/mL (≈ 3.7 µM); in the assay on L132, greater than 10 µg/mL; with DU-145 it was 6.6 µg/mL (≈ 10.6 µM). In addition, the EC50 was 1.9 µg/mL (≈ 3.06 µM) in the assay on Jurkat, greater than 10 µg/mL in the assay with A549 and 1.2 µg/mL (≈ 1.93 µM) in the assay on U-937.
For the compound `C=C(C)[C@@H]1CC[C@]2(C(=O)CC(=O)OC)CC[C@]3(C)C(CCC4[C@@]5(C)CC[C@H](O)C(C)(C)C5CC[C@]43C)C12` (stereo partly drawn), the EC50 with CCRF-CEM was 6.4 µg/mL (≈ 12.5 µM); with PA-1, 7.1 µg/mL (≈ 13.8 µM); with MOLT-4 it was 3.9 µg/mL (≈ 7.61 µM); in the assay on BRISTOL8, 4.5 µg/mL (≈ 8.78 µM); in the assay on L132 it was greater than 10 µg/mL; with DU-145, 2.9 µg/mL (≈ 5.66 µM). In addition, the EC50 was 7.4 µg/mL (≈ 14.4 µM) with Jurkat, greater than 10 µg/mL in the assay with A549 and greater than 10 µg/mL in the assay with U-937.
For `COC(=O)COC(=O)[C@]12CC[C@@H](C(C)C)C1C1CCC3[C@@]4(C)CC(Br)C(=O)C(C)(C)C4CC[C@@]3(C)[C@]1(C)CC2` (stereo partly drawn), the EC50 was 2.1 µg/mL (≈ 3.46 µM) in the assay on CCRF-CEM; 3.2 µg/mL (≈ 5.27 µM) in the assay with PA-1; 1.7 µg/mL (≈ 2.8 µM) in the assay on MOLT-4; 3.4 µg/mL (≈ 5.6 µM) in the assay with BRISTOL8; greater than 10 µg/mL with L132; 6.8 µg/mL (≈ 11.2 µM) in the assay with DU-145. The values for the EC50 in the assay with Jurkat, in the assay with A549 and in the assay with U-937 were 2.8 µg/mL (≈ 4.61 µM), greater than 10 µg/mL and 1.1 µg/mL (≈ 1.81 µM), respectively.
Consider `C=C(C)[C@@H]1CC[C@]2(C(=O)OCC(=O)OC)CC[C@]3(C)C(CCC4[C@@]5(C)CC[C@H](O)C(C)(C)C5CC[C@]43C)C12` (stereo in doubt; 3), for which the EC50 in the assay with CCRF-CEM was 3.2 µg/mL (≈ 6.05 µM); with PA-1, 5.9 µg/mL (≈ 11.2 µM); in the assay on MOLT-4 it was 4 µg/mL (≈ 7.56 µM); in the assay with BRISTOL8, 5.3 µg/mL (≈ 10 µM); in the assay with L132 it was greater than 10 µg/mL; with A549, greater than 10 µg/mL. Further, in the assay on U-937, the EC50 is greater than 10 µg/mL. The ED50 was greater than 10 µg/mL in the assay with DU-145 and 1.4 µg/mL (≈ 2.65 µM) in the assay on Jurkat.
In the case of `C=C(C)[C@@H]1CC[C@]2(C(=O)O)CC[C@]3(C)[C@H](CC[C@@H]4[C@@]5(C)CC[C@H](O)C(C)(C)[C@@H]5CC[C@]43C)[C@@H]12` [BETULINIC ACID], the EC50 in the assay with CCRF-CEM is 0.98 µg/mL (≈ 2.15 µM); in the assay on PA-1, greater than 10 µg/mL; in the assay on MOLT-4 it was 1.23 µg/mL (≈ 2.69 µM); with BRISTOL8, 0.84 µg/mL (≈ 1.84 µM); in the assay on L132, 1.3 µg/mL (≈ 2.85 µM); in the assay with DU-145, 1.13 µg/mL (≈ 2.47 µM). Besides, the EC50 with Jurkat was 0.65 µg/mL (≈ 1.42 µM); in the assay with A549 it was greater than 10 µg/mL; in the assay on U-937 it was 0.69 µg/mL (≈ 1.51 µM).
On to `C=C(C)[C@@H]1CC[C@]2(C(=O)O)CC[C@]3(C)[C@H](CC[C@@H]4[C@@]5(C)CCC(=O)C(C)(C)[C@@H]5CC[C@]43C)[C@@H]12` [BETUNOLIC ACID], for which the EC50 is 4.4 µg/mL (≈ 9.68 µM) in the assay with CCRF-CEM; 1.2 µg/mL (≈ 2.64 µM) in the assay on PA-1; 1.2 µg/mL (≈ 2.64 µM) in the assay with MOLT-4; 2.6 µg/mL (≈ 5.72 µM) in the assay on BRISTOL8; greater than 10 µg/mL with L132; 3.1 µg/mL (≈ 6.82 µM) with DU-145. Also, the EC50 in the assay with Jurkat is 0.4 µg/mL (≈ 0.88 µM); with A549 it was greater than 10 µg/mL; in the assay on U-937, 2.8 µg/mL (≈ 6.16 µM).
Regarding `CC(C)[C@@H]1CC[C@]2(C(=O)O)CC[C@]3(C)C(CCC4[C@@]5(C)CC[C@H](O)C(C)(C)C5CC[C@]43C)C12` (stereo partly drawn) [DIHYDROBETULINIC ACID], the EC50 with CCRF-CEM is 1.3 µg/mL (≈ 2.83 µM); in the assay on PA-1, 0.7 µg/mL (≈ 1.53 µM); with MOLT-4, 0.6 µg/mL (≈ 1.31 µM); in the assay on BRISTOL8 it was 4.4 µg/mL (≈ 9.59 µM); in the assay with L132 it was 2.4 µg/mL (≈ 5.23 µM); in the assay with DU-145, 0.7 µg/mL (≈ 1.53 µM). The results for the EC50 in the assay with Jurkat, in the assay with A549 and with U-937 were 4.9 µg/mL (≈ 10.7 µM), 2.2 µg/mL (≈ 4.8 µM) and 0.9 µg/mL (≈ 1.96 µM), respectively.
